Data on eight substances can be found in patent US11603552B2 (priority 2020, dated 2023).

For one data set, the system named is SARS PLpro. The format is biochemical.
Data set [1] concerns human cells infected with OC43 coronavirus. The format is cell-based.
Data set [2] relates to endogenous enzymes present in crude tongue scrape lysate. The format is biochemical, human.
The target in data set [3] is MERS papain-like protease (recombinant) (Middle East respiratory syndrome-related coronavirus, UniProt K9N7C7).
MERS papain-like protease (recombinant), sequence (K9N7C7 1552-1823 limits assumed): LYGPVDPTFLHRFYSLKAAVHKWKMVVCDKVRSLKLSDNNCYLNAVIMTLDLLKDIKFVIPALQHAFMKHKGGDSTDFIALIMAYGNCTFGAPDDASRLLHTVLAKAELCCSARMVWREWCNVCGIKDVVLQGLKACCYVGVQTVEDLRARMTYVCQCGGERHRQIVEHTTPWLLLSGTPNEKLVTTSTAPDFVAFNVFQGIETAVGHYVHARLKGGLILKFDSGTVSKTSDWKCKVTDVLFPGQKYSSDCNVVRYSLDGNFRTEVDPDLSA
Data set [4] concerns the target SARS-1 papain-like protease (recombinant) (Severe acute respiratory syndrome coronavirus, UniProt P0C6X7).
Data set [5] has as its target SARS-2 papain-like protease (recombinant) (Severe acute respiratory syndrome coronavirus 2, UniProt P0DTD1).
A further data set deals with PLpro from SARS-CoV-1 (Severe acute respiratory syndrome coronavirus, UniProt P0C6X7).
The next data set addresses PLpro from SARS-CoV-2 (Severe acute respiratory syndrome coronavirus 2, UniProt P0DTD1).
For a further data set, the target named is MERS PLpro (Middle East respiratory syndrome-related coronavirus, UniProt K9N7C7).
MERS PLpro, sequence (K9N7C7 1552-1823 limits assumed): as above
The next data set has as its system SARS-1. As to conditions: cited from earlier work.
The next data set concerns SARS-2. As to conditions: cited from earlier work.
A further data set has as its system MERS. Conditions: cited from earlier work.
The target in the next data set is NL63 PLP2 (recombinant) (Human coronavirus NL63, UniProt P0C6X5). The format is biochemical. Also on record: cleavage of papain-like protease substrate: key to the marks not given beside the values.
NL63 PLP2 (recombinant), sequence (P0C6X5 1640-1886 limits assumed): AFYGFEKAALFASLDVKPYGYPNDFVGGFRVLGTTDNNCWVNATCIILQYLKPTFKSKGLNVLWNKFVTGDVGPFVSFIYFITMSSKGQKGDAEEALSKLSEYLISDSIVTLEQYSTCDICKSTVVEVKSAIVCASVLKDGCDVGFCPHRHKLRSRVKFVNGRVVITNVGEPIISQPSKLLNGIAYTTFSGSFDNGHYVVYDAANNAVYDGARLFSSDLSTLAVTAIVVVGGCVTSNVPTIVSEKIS
The subject of data set [6] is human cells infected with NL63 coronavirus. The format is cell-based. Conditions: NL63, viral enzyme, in vivo (infected human cell lysate), after 15 minutes of incubation.
In a further data set the target is human UCH-L3 (Homo sapiens, UniProt P15374). The format is biochemical.
human UCH-L3, sequence (P15374 whole entry, looked up): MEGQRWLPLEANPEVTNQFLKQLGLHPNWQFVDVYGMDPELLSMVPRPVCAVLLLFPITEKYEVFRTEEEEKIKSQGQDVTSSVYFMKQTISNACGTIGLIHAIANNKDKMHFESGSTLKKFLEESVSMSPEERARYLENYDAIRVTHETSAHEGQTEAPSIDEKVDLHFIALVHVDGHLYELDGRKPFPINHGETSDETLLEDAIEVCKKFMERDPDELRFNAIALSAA

“Also recorded” adds a separate entry of the source.

In the case of Ac-Abu(Bth)-Dap-G-G (SEQ ID NO. 9), the “specific cleavage by SARS PLpro (not by MERS PLpro or human deubiquitylating enzymes)” value with SARS PLpro was “specifically cleaved”.

With Ac-Tyr-Dap-G-G (SEQ ID NO. 11), the “specific cleavage by SARS PLpro (not by MERS PLpro or human deubiquitylating enzymes)” value with SARS PLpro is on record as “specifically cleaved”.

As for Ac-hPhe-Dap-G-G (SEQ ID NO. 12), the “specific cleavage by SARS PLpro (not by MERS PLpro or human deubiquitylating enzymes)” value with SARS PLpro was “specifically cleaved”.

Consider Ac-hTyr-Phe(guan)-G-G (SEQ ID NO. 10), for which, in the data set with SARS PLpro, the “specific cleavage by SARS PLpro (not by MERS PLpro or human deubiquitylating enzymes)” value was “specifically cleaved”.

Regarding L-R-G-G (SEQ ID NO. 1), the “cleavage, percent fluorescence increase relative to uninfected cells” value in data set [1] is given as 22%^2. Further, the “cleavage by endogenous enzymes present in lysate” value in data set [2] is reported as “is cleaved; also recorded: slight fluorescence increases”. Also, the “cleavage of papain-like protease substrate” value in [3], in data set [4] and in data set [5] was “+” in each case. Further, the “cleavage of substrate (qualitative)” value at PLpro from SARS-CoV-1, at PLpro from SARS-CoV-2 and on MERS PLpro was “cleave” throughout. For the same substance, the “Catalytic rate (Kcat)” value in the data set with SARS-1 was 0.0051 min⁻¹; in the data set with SARS-2, 0.3 min⁻¹; in the data set on MERS, 0.003 min⁻¹.

Turning to Tyr-Dap-G-G (SEQ ID NO. 4), the “cleavage, percent fluorescence increase relative to uninfected cells” value in data set [1] is given as 34%^3. Moreover, the “cleavage by endogenous enzymes present in lysate” value in data set [2] was “is not cleaved”. The entries for the “cleavage of papain-like protease substrate” value in [4] and in [5] were “++” and “+”, respectively.

For Ubiquitin, the “cleavage of papain-like protease substrate” value at NL63 PLP2 (recombinant) was “+++”; in data set [3] it was “++”; in data set [4], “++”; in [5] it was “++”. At NL63 PLP2 (recombinant), the “times more efficiently cleaved than ISG15” value is 2.5 times. In addition, the “times more efficiently cleaved than the tetrapeptide” value on NL63 PLP2 (recombinant) turned out to be 120 times. In addition, the “cleavage, percent fluorescence increase relative to uninfected cells” value in [6] is listed as 24%^1. Also, the “cleavage of substrate (qualitative)” value at PLpro from SARS-CoV-1, on PLpro from SARS-CoV-2 and at MERS PLpro was “cleave” each time. For the same substance, the results for the “Catalytic rate (Kcat)” value in the data set on SARS-1, with SARS-2 and in the data set with MERS were 10 min⁻¹, 75.9 min⁻¹ and 18.8 min⁻¹, respectively.

In the case of hTyr-Dap-G-G (SEQ ID NO. 13), the “recognition of the substrate” value on human UCH-L3 is listed as “do not recognize”.
